Measurements from PubChem BioAssay (NCI).
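Assay format: 96-well plates, 48-hour exposure. Here, GI50 denotes the concentration required for 50% inhibition of growth. The concentration for full growth arrest is given as TGI.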

Legend:
Experiment in all cases: growth of human tumour cells (NCI), 48 h
786-0 renal = tested on: 786-0 renal
A498 renal = tested on: A498 renal
A549 NSCLC = tested on: A549 NSCLC
ACHN renal = tested on: ACHN renal
BT-549 breast = tested on: BT-549 breast
CAKI-1 renal = tested on: CAKI-1 renal
CCRF-CEM leukemia = tested on: CCRF-CEM leukemia
COLO 205 colon = tested on: COLO 205 colon
DU-145 prostate = tested on: DU-145 prostate
EKVX NSCLC = tested on: EKVX NSCLC
HCC-2998 colon = tested on: HCC-2998 colon
HCT-116 colon = tested on: HCT-116 colon
HCT-15 colon = tested on: HCT-15 colon
HL-60(TB) leukemia = tested on: HL-60(TB) leukemia
HOP-62 NSCLC = tested on: HOP-62 NSCLC
HOP-92 NSCLC = tested on: HOP-92 NSCLC
HS 578T breast = tested on: HS 578T breast
HT29 colon = tested on: HT29 colon
IGROV1 ovarian = tested on: IGROV1 ovarian
K-562 leukemia = tested on: K-562 leukemia
KM12 colon = tested on: KM12 colon
LOX IMVI melanoma = tested on: LOX IMVI melanoma
M14 melanoma = tested on: M14 melanoma
MALME-3M melanoma = tested on: MALME-3M melanoma
MCF7 breast = tested on: MCF7 breast
MDA-MB-231 breast = tested on: MDA-MB-231 breast
MDA-MB-435 = tested on: MDA-MB-435
MDA-MB-468 breast = tested on: MDA-MB-468 breast
MOLT-4 leukemia = tested on: MOLT-4 leukemia
NCI-H226 lung = tested on: NCI-H226 lung
NCI-H23 lung = tested on: NCI-H23 lung
NCI-H460 lung = tested on: NCI-H460 lung
NCI-H522 lung = tested on: NCI-H522 lung
OVCAR-3 ovarian = tested on: OVCAR-3 ovarian
OVCAR-4 ovarian = tested on: OVCAR-4 ovarian
OVCAR-5 ovarian = tested on: OVCAR-5 ovarian
OVCAR-8 ovarian = tested on: OVCAR-8 ovarian
PC-3 prostate = tested on: PC-3 prostate
RPMI-8226 leukemia = tested on: RPMI-8226 leukemia
RXF 393 renal = tested on: RXF 393 renal
SF-268 CNS = tested on: SF-268 CNS
SF-295 CNS = tested on: SF-295 CNS
SF-539 CNS = tested on: SF-539 CNS
SK-MEL-2 melanoma = tested on: SK-MEL-2 melanoma
SK-MEL-28 melanoma = tested on: SK-MEL-28 melanoma
SK-MEL-5 melanoma = tested on: SK-MEL-5 melanoma
SK-OV-3 ovarian = tested on: SK-OV-3 ovarian
SN12C renal = tested on: SN12C renal
SNB-19 CNS = tested on: SNB-19 CNS
SR leukemia = tested on: SR leukemia
SW-620 colon = tested on: SW-620 colon
T-47D breast = tested on: T-47D breast
TK-10 renal = tested on: TK-10 renal
U251 CNS = tested on: U251 CNS
UACC-257 melanoma = tested on: UACC-257 melanoma
UACC-62 melanoma = tested on: UACC-62 melanoma
UO-31 renal = tested on: UO-31 renal

CC(C)(C)c1cc(-c2cc(-c3ccccc3)[nH]c(=O)c2C#N)cc(C(C)(C)C)c1
GI50 (786-0 renal): 5.14 µM
TGI (786-0 renal): 18.2 µM
GI50 (A498 renal): 10.1 µM
TGI (A498 renal): 26.1 µM
GI50 (A549 NSCLC): 3.71 µM
TGI (A549 NSCLC): 15.9 µM
GI50 (ACHN renal): 2.7 µM
TGI (ACHN renal): 7.91 µM
GI50 (BT-549 breast): 4.12 µM
TGI (BT-549 breast): 19 µM
GI50 (CAKI-1 renal): 2.81 µM
TGI (CAKI-1 renal): 11 µM
GI50 (CCRF-CEM leukemia): 36.8 µM
TGI (CCRF-CEM leukemia): > 100 µM
GI50 (COLO 205 colon): 37.6 µM
TGI (COLO 205 colon): > 100 µM
GI50 (DU-145 prostate): 11.3 µM
TGI (DU-145 prostate): 31.6 µM
GI50 (EKVX NSCLC): 6.58 µM
TGI (EKVX NSCLC): 22.6 µM
GI50 (HCC-2998 colon): 38.8 µM
TGI (HCC-2998 colon): > 100 µM
GI50 (HCT-116 colon): 21.4 µM
TGI (HCT-116 colon): 61.4 µM
GI50 (HCT-15 colon): 17.8 µM
TGI (HCT-15 colon): > 100 µM
GI50 (HL-60(TB) leukemia): 49.2 µM
TGI (HL-60(TB) leukemia): > 100 µM
GI50 (HOP-62 NSCLC): 3.25 µM
TGI (HOP-62 NSCLC): 11.9 µM
GI50 (HOP-92 NSCLC): 2.83 µM
TGI (HOP-92 NSCLC): 8.64 µM
GI50 (HS 578T breast): 2.63 µM
TGI (HS 578T breast): 8.85 µM
GI50 (HT29 colon): 23.4 µM
TGI (HT29 colon): 62 µM
GI50 (IGROV1 ovarian): 3.9 µM
TGI (IGROV1 ovarian): 17.6 µM
GI50 (K-562 leukemia): 17.8 µM
TGI (K-562 leukemia): > 100 µM
GI50 (KM12 colon): > 100 µM
TGI (KM12 colon): > 100 µM
GI50 (LOX IMVI melanoma): 2.02 µM
TGI (LOX IMVI melanoma): 4.53 µM
GI50 (M14 melanoma): 12 µM
TGI (M14 melanoma): 38.3 µM
GI50 (MALME-3M melanoma): 4.53 µM
TGI (MALME-3M melanoma): 17 µM
GI50 (MCF7 breast): 12.9 µM
TGI (MCF7 breast): 39.1 µM
GI50 (MDA-MB-231 breast): 2.72 µM
TGI (MDA-MB-231 breast): 8.82 µM
GI50 (MDA-MB-435): 14.6 µM
TGI (MDA-MB-435): 43.1 µM
GI50 (MDA-MB-468 breast): 10.3 µM
TGI (MDA-MB-468 breast): 29.7 µM
GI50 (MOLT-4 leukemia): 14.2 µM
TGI (MOLT-4 leukemia): > 100 µM
GI50 (NCI-H226 lung): 2.69 µM
TGI (NCI-H226 lung): 10.3 µM
GI50 (NCI-H23 lung): 6.22 µM
TGI (NCI-H23 lung): 22.4 µM
GI50 (NCI-H460 lung): 3.56 µM
TGI (NCI-H460 lung): 13.1 µM
GI50 (NCI-H522 lung): 15.1 µM
TGI (NCI-H522 lung): 73.3 µM
GI50 (OVCAR-3 ovarian): 12.4 µM
TGI (OVCAR-3 ovarian): 41.5 µM
GI50 (OVCAR-4 ovarian): 2.85 µM
TGI (OVCAR-4 ovarian): 10.1 µM
GI50 (OVCAR-5 ovarian): 15.2 µM
TGI (OVCAR-5 ovarian): 93.2 µM
GI50 (OVCAR-8 ovarian): 3.5 µM
TGI (OVCAR-8 ovarian): 13.9 µM
GI50 (PC-3 prostate): 11.5 µM
TGI (PC-3 prostate): 36.3 µM
GI50 (RPMI-8226 leukemia): 37.7 µM
TGI (RPMI-8226 leukemia): > 100 µM
GI50 (RXF 393 renal): 2.4 µM
TGI (RXF 393 renal): 7.03 µM
GI50 (SF-268 CNS): 7.73 µM
TGI (SF-268 CNS): 46.3 µM
GI50 (SF-295 CNS): 2.05 µM
TGI (SF-295 CNS): 4.81 µM
GI50 (SF-539 CNS): 5.11 µM
TGI (SF-539 CNS): 17.7 µM
GI50 (SK-MEL-2 melanoma): 12 µM
TGI (SK-MEL-2 melanoma): 26.5 µM
GI50 (SK-MEL-28 melanoma): 12.8 µM
TGI (SK-MEL-28 melanoma): 30.5 µM
GI50 (SK-MEL-5 melanoma): 14.3 µM
TGI (SK-MEL-5 melanoma): 34.1 µM
GI50 (SK-OV-3 ovarian): 5.8 µM
TGI (SK-OV-3 ovarian): 22 µM
GI50 (SN12C renal): 4.09 µM
TGI (SN12C renal): 25.7 µM
GI50 (SNB-19 CNS): 3.03 µM
TGI (SNB-19 CNS): 10.8 µM
GI50 (SR leukemia): 19.4 µM
TGI (SR leukemia): > 100 µM
GI50 (SW-620 colon): 18.6 µM
TGI (SW-620 colon): > 100 µM
GI50 (T-47D breast): 6.71 µM
TGI (T-47D breast): 45.8 µM
GI50 (TK-10 renal): 4.97 µM
TGI (TK-10 renal): 19.9 µM
GI50 (U251 CNS): 3.05 µM
TGI (U251 CNS): 10.8 µM
GI50 (UACC-257 melanoma): 13.5 µM
TGI (UACC-257 melanoma): 36.2 µM
GI50 (UACC-62 melanoma): 7.98 µM
TGI (UACC-62 melanoma): 22.7 µM
GI50 (UO-31 renal): 4.11 µM
TGI (UO-31 renal): 19.1 µM
